Source: ChEMBL document CHEMBL2073760, “Efflux transport of a new quinolone antibacterial agent, HSR-903, across the blood-brain barrier” (J Pharmacol Exp Ther, 1999)

Target: ATP-dependent translocase ABCB1 (Mus musculus, UniProt P21447)
Test: TP_TRANSPORTER: increase in brain concentration in mdr1a(-/-) mouse
Type: functional, organism-based
Details: in vivo

Chain of ATP-dependent translocase ABCB1 (P21447 whole entry): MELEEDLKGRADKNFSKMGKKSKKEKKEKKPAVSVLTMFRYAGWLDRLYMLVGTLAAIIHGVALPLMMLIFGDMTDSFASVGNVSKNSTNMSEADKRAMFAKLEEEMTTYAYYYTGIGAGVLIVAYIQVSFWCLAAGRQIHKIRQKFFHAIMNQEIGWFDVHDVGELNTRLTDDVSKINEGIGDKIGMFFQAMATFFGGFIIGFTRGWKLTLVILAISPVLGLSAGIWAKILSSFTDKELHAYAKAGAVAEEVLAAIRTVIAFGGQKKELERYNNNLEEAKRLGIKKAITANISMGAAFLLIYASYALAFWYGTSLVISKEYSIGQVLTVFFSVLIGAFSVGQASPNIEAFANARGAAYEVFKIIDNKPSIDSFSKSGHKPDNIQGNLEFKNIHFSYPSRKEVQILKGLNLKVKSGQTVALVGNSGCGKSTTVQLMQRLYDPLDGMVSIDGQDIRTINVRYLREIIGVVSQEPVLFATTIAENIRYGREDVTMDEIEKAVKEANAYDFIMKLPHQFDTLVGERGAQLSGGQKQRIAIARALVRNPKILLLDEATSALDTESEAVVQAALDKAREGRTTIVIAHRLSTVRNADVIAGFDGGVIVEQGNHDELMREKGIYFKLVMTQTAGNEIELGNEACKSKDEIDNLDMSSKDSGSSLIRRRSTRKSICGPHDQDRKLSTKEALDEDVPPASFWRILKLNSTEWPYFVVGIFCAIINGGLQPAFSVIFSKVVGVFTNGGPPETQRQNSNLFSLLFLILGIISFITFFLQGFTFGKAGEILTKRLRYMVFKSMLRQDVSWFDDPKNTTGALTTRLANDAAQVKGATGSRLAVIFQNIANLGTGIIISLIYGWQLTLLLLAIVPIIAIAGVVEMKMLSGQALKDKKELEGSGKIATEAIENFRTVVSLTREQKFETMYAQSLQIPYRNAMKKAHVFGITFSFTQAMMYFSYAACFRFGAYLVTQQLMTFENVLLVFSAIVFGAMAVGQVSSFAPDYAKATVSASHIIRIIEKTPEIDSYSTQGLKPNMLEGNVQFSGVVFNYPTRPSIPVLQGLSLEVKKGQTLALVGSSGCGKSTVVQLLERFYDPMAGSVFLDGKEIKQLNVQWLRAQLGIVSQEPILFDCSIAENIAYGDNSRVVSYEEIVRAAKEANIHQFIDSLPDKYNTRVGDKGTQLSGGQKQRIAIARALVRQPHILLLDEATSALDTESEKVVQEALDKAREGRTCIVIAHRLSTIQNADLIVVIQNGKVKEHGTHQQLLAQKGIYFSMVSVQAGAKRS

## CS(=O)(=O)O.Cc1c(N2C[C@@H](N)C3(CC3)C2)c(F)c(N)c2c(=O)c(C(=O)O)cn(C3CC3)c12
  Activity: substrate [+]
